Experimental data: US8119681B2, “2-[1-phenyl-5-hydroxy or methoxy-4alpha-methyl-hexahydrocyclopenta [ƒ]indazole-5-YL]ethyl phenyl derivatives as glucocorticoid receptor ligands” (Merck Sharp & Dohme Corp., priority 2006, dated 2012)

Columns and labels:
[1] = target: T1, human GR (Homo sapiens, UniProt P04150); test: Trans-Activation Modulation of Glucocorticoid Receptor (GRAMMER), MMTV-LUC reporter gene; type: cell-based; design: endogenous in cells; settings: for Emax: A549, read-out: Transactivation A549 Cells GRAMMER Emax (%); for EC50: Table 1, A549 cells, IP = inflection point, read-out: Transactivation A549 Cells GRAMMER IP
T1 sequence (P04150 1-777): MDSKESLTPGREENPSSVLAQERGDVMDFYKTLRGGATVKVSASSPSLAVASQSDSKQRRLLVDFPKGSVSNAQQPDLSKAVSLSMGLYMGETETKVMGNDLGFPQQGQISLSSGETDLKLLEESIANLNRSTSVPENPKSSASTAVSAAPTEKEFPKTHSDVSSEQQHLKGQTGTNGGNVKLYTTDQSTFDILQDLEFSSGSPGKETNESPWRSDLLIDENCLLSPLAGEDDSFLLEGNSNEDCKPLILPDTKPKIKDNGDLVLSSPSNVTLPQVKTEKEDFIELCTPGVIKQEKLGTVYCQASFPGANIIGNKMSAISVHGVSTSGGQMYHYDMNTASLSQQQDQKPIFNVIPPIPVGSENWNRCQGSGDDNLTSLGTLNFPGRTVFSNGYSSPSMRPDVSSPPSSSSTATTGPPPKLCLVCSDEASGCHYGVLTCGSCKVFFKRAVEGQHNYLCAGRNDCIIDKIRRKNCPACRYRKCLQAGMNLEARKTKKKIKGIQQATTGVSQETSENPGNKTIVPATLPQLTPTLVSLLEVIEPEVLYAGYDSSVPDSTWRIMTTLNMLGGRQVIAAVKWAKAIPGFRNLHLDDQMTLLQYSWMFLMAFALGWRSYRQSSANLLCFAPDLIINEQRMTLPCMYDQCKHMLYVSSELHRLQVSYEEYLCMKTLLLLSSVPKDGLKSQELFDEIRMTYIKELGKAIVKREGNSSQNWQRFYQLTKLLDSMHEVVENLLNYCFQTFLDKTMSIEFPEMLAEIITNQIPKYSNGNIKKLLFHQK

[2] = target: T1, human GR; test: Transrepression Assay (GITAR), TNFα-β-lactamase reporter gene in U937 cells; type: cell-based; design: U937 cells contain an endogenous glucocorticoid receptor (GR); endogenous in cells; host or cells: U937 cells stably transfected with the TNF-α promoter/β-lactamase reporter only; settings: for EC50: IP = inflection point, read-out: Transrepression U937 Cells GITAR IP; for GITAR > GRAMM % SEP: separation of GITAR Emax over GRAMMER Emax; for Emax: U-937
Method in brief: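 Reporter readout used CCF2-AM loading for 70–90 min at room temperature after overnight (~18 h, 37 °C) PMA (5 ng/ml final) and LPS (100 ng/ml final) stimulation of compound-treated (30–45 min) TNFα-β-lactamase U937 cells expressing native GR. Activity was normalised to 100 nM dexamethasone repression.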

[3] = 100 nM dexamethasone = 100% activity, read-out: maximal activity in the transrepression assay
[4] = Table 1, U937 cells, activity repressed by 100 nM dexamethasone = 100%, read-out: Transrepression U937 Cells GITAR Emax (%)

Emax [1] [%] | EC50 [1] [nM] | EC50 ([2]; Table 1, U937 cells) [nM] | GITAR > GRAMM % SEP ([2]; Table 1) [%] | Emax [2, 3] [%] | Emax [2, 4] [%] | SMILES
24 | 234 | 223 | 42 | 5 to 100 | 66 | C[C@]12Cc3cnn(-c4ccc(F)cc4)c3C=C1CC[C@@]2(O)CCc1ccc(Cl)cc1C(N)=O [Example 170, 5-chloro-2-{2-[(4αS,5R)-1-(4-fluorophenyl)-5-hydroxy-4α-methyl-1,4,4α,5,6,7-hexahydrocyclopenta[f]indazol-5-yl]ethyl}benzamide]
41 | 162 | 139 | 36 | 5 to 100 | 78 | C[C@]12Cc3cnn(-c4ccc(F)c(F)c4)c3C=C1CC[C@@]2(O)CCc1ccccc1C(N)=O [Example 172, 2-{2-[(4αS,5R)-1-(3,4-difluorophenyl)-5-hydroxy-4α-methyl-1,4,4α,5,6,7-hexahydrocyclopenta[f]indazol-5-yl]ethyl}benzamide]
36 | 147 | 183 | 41 | 5 to 100 | 77 | Cc1ccc(C(N)=O)c(CC[C@]2(O)CCC3=Cc4c(cnn4-c4ccc(F)cc4)C[C@@]32C)c1 [Example 174, 2-{2-[(4αS,5R)-1-(4-fluorophenyl)-5-hydroxy-4α-methyl-1,4,4α,5,6,7-hexahydrocyclopenta[f]indazol-5-yl]ethyl}-4-methylbenzamide]
39 | 144 | 59 | 41 | 5 to 100 | 80 | C[C@]12Cc3cnn(-c4ccc(Cl)cc4)c3C=C1CC[C@@]2(O)CCc1cccc(F)c1C(N)=O [Example 185, 2-{2-[(4αS,5R)-1-(4-chlorophenyl)-5-hydroxy-4α-methyl-1,4,4α,5,6,7-hexahydrocyclopenta[f]indazol-5-yl]ethyl}-6-fluorobenzamide]
49 | 28 | 23 | 31 | 5 to 100 | 80 | COc1cccc(CC[C@]2(O)CCC3=Cc4c(cnn4-c4ccc(F)cc4)C[C@@]32C)c1C(N)=O [Example 189, 2-{2-[(4αS,5R)-1-(4-fluorophenyl)-5-hydroxy-4α-methyl-1,4,4α,5,6,7-hexahydrocyclopenta[f]indazol-5-yl]ethyl}-6-methoxybenzamide]
49 | 55 | 33 | 29 | 5 to 100 | 78 | Cc1cccc(CC[C@]2(O)CCC3=Cc4c(cnn4-c4cccc(F)c4)C[C@@]32C)c1C(N)=O [Example 191, 2-{2-[(4αS,5R)-1-(3-fluorophenyl)-5-hydroxy-4α-methyl-1,4,4α,5,6,7-hexahydrocyclopenta[f]indazol-5-yl]ethyl}-6-methylbenzamide]
38 | 99 | 87 | 41 | 5 to 100 | 78 | C[C@]12Cc3cnn(-c4ccc(F)cc4)c3C=C1CC[C@@]2(O)CCc1cccc(F)c1CC(N)=O [Example 194, 2-(2-fluoro-6-{2-[(4αS,5R)-1-(4-fluorophenyl)-5-hydroxy-4α-methyl-1,4,4α,5,6,7-hexahydrocyclopenta[f]indazol-5-yl]ethyl}phenyl)acetamide]
46 | 249 | 138 | 21 | 5 to 100 | 67 | C[C@]12Cc3cnn(-c4ccc(F)cc4)c3C=C1CC[C@@]2(O)CCc1cccc(Cl)c1CC(N)=O [Example 197, 2-(2-chloro-6-{2-[(4αS,5R)-1-(4-fluorophenyl)-5-hydroxy-4α-methyl-1,4,4α,5,6,7-hexahydrocyclopenta[f]indazol-5-yl]ethyl}phenyl)acetamide]
